Several values for one entry are separate records, joined by “and”; a condition that tells them apart may be missing. Equal values may be shown once. Toxic doses and inconclusive results are not listed.
Test system: P388 leukemia ip, CD2F1 mice, survival T/C
Test: NCI In Vivo Anticancer Drug Screen. Data for tumor model P388 Leukemia (intraperitoneal) in CD2F1 (CDF1) mice
Details: endpoint: median survival time, higher = longer survival
Summary of the method: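 Mice carrying the transplanted tumor received test compound or vehicle. Survival was recorded in each group, and the value is the treated-group measurement divided by that of the vehicle-treated control group.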

[1] = dose: 12.5 mg/kg/injection, schedule: Q04DX003 (ip), vehicle: saline with Tween-80
[2] = dose: 25.0 mg/kg/injection, schedule: Q04DX003 (ip), vehicle: saline with Tween-80
[3] = dose: 50.0 mg/kg/injection, schedule: Q04DX003 (ip), vehicle: saline with Tween-80
[4] = dose: 50.0 mg/kg/injection, schedule: Q01DX009 (ip), vehicle: Klucel (hydroxypropylcellulose) (HPC)
[5] = dose: 100.0 mg/kg/injection, schedule: Q01DX009 (ip), vehicle: Klucel (hydroxypropylcellulose) (HPC)
[6] = dose: 60.0 mg/kg/injection, schedule: Q01DX005 (ip), vehicle: saline with Tween-80
[7] = dose: 120.0 mg/kg/injection, schedule: Q01DX005 (ip), vehicle: saline with Tween-80
[8] = dose: 240.0 mg/kg/injection, schedule: Q01DX005 (ip), vehicle: saline with Tween-80

SMILES: COc1cccc2c1C(=O)c1c(O)c3c(c(O)c1C2=O)C[C@@](O)(C(C)=O)C[C@@H]3OC1CC(N)C(OC2CC(O)C(O)C(C)O2)C(C)O1 (stereo partly specified)
- T/C (dose: 2.25 mg/kg/injection, schedule: Q04DX003 (ip), vehicle: distilled water + Tween-80): 113 % of control
- T/C (dose: 4.5 mg/kg/injection, schedule: Q04DX003 (ip), vehicle: distilled water + Tween-80): 113 % of control
- T/C (dose: 6.25 mg/kg/injection, schedule: Q04DX003 (ip), vehicle: distilled water + Tween-80): 112 % of control
- T/C (dose: 9.0 mg/kg/injection, schedule: Q04DX003 (ip), vehicle: distilled water + Tween-80): 123 % of control
- T/C (dose: 12.5 mg/kg/injection, schedule: Q04DX003 (ip), vehicle: distilled water + Tween-80): 112 % of control
- T/C (dose: 25.0 mg/kg/injection, schedule: Q04DX003 (ip), vehicle: distilled water + Tween-80): 119 % of control
- T/C (dose: 36.0 mg/kg/injection, schedule: Q04DX003 (ip), vehicle: distilled water + Tween-80): 123 % of control
- T/C (dose: 100.0 mg/kg/injection, schedule: Q04DX003 (ip), vehicle: distilled water + Tween-80): 118 % of control

SMILES: COc1ccc2c(NCCCCCCCCNc3c4ccccc4nc4cc(OC)ccc34)c3ccccc3nc2c1
- T/C (dose: 0.62 mg/kg/injection, schedule: Q01DX009 (ip), vehicle: other): 176 % of control
- T/C (dose: 3.75 mg/kg/injection, schedule: Q01DX009 (ip), vehicle: other): 157 % of control
- T/C (dose: 7.5 mg/kg/injection, schedule: Q01DX009 (ip), vehicle: other): 100 % of control

SMILES: O=C1NCNC(=O)N1
- T/C [1]: 100 % of control
- T/C [2]: 98 % of control
- T/C [3]: 101 % of control
- T/C (dose: 100.0 mg/kg/injection, schedule: Q04DX003 (ip), vehicle: saline with Tween-80): 98 % of control

SMILES: CS(=O)(=O)CCCCCCCCCCS(C)(=O)=O
- T/C (dose: 100.0 mg/kg/injection, schedule: Q01DX001 (ip), vehicle: saline): 95 % of control
- T/C (dose: 200.0 mg/kg/injection, schedule: Q01DX001 (ip), vehicle: saline): 100 % of control
- T/C (dose: 400.0 mg/kg/injection, schedule: Q01DX001 (ip), vehicle: saline): 93 % of control

SMILES: N#CCCCN1C(=O)c2ccccc2C1=O
- T/C [4]: 102 % of control
- T/C [5]: 104 % of control

SMILES: NC(N)=NS(=O)(=O)c1ccc(N=CC2C(=O)N(c3ccccc3)N(c3ccccc3)C2=O)cc1
- T/C [4]: 92 % of control
- T/C [5]: 92 % of control
- T/C (dose: 200.0 mg/kg/injection, schedule: Q01DX009 (ip), vehicle: Klucel (hydroxypropylcellulose) (HPC)): 100 % of control

SMILES: O/N=C(/Cc1nc2cc(Cl)c(Cl)cc2nc1C/C(=N/O)c1cccnc1)c1cccnc1
- T/C [6]: 102 % of control
- T/C [7]: 107 % of control
- T/C [8]: 107 % of control

SMILES: O=C1C(=O)c2ccccc2C(O)=C1CCCc1ccc(OCc2ccccc2)cc1
- T/C (dose: 5.0 mg/kg/injection, schedule: Q01DX009 (ip), vehicle: saline with Tween-80): 107 % of control
- T/C (dose: 10.0 mg/kg/injection, schedule: Q01DX009 (ip), vehicle: saline with Tween-80): 117 % of control
- T/C (dose: 20.0 mg/kg/injection, schedule: Q01DX009 (ip), vehicle: saline with Tween-80): 108 % of control
- T/C (dose: 40.0 mg/kg/injection, schedule: Q01DX009 (ip), vehicle: saline with Tween-80): 105 % of control

SMILES: NC(N)=NCCCSC(=O)C1CCCCC1
- T/C (dose: 50.0 mg/kg/injection, schedule: Q01DX005 (ip), vehicle: saline with Tween-80): 105 % of control
- T/C (dose: 100.0 mg/kg/injection, schedule: Q01DX005 (ip), vehicle: saline with Tween-80): 107 % of control

SMILES: COC(=O)c1c(SC)c2sc3ccccc3c2oc1=O
- T/C (dose: 6.25 mg/kg/injection, schedule: Q04DX002 (ip), vehicle: saline with Tween-80): 100 % of control
- T/C (dose: 12.5 mg/kg/injection, schedule: Q04DX002 (ip), vehicle: saline with Tween-80): 106 % of control
- T/C (dose: 25.0 mg/kg/injection, schedule: Q04DX002 (ip), vehicle: saline with Tween-80): 99 % of control

SMILES: O=C1C(C2CCCCC2)=C2OCC3COC2(O3)c2ccccc21 (stereo unspecified)
- T/C [6]: 102 % of control
- T/C [7]: 105 % of control
- T/C [8]: 102 % of control

SMILES: CCn1c(=O)c(C#N)c2n(CC)c3ccccc3n2c1=O
- T/C (dose: 3.75 mg/kg/injection, schedule: Q01DX005 (ip), vehicle: saline with Tween-80): 100 % of control
- T/C (dose: 7.5 mg/kg/injection, schedule: Q01DX005 (ip), vehicle: saline with Tween-80): 100 % of control
- T/C (dose: 15.0 mg/kg/injection, schedule: Q01DX005 (ip), vehicle: saline with Tween-80): 100 % of control

SMILES: C[CH2][Sn]1([CH2]C)[O]S(=O)(=O)[O]1
- T/C (dose: 1.56 mg/kg/injection, schedule: Q01DX005 (ip), vehicle: saline): 124 % of control

SMILES: COc1cc2c(cc1OC)C(=O)C(=C1C=CN(C)C=C1)N=C2
- T/C (dose: 100.0 mg/kg/injection, schedule: Q04DX003 (ip), vehicle: saline): 101 % of control
- T/C (dose: 200.0 mg/kg/injection, schedule: Q04DX003 (ip), vehicle: saline): 95 % of control
- T/C (dose: 400.0 mg/kg/injection, schedule: Q04DX003 (ip), vehicle: saline): 100 % of control

SMILES: O=C(c1ccccc1)C(CN1CCCC1)CN1CCCC1
- T/C (dose: 12.5 mg/kg/injection, schedule: Q01DX005 (ip), vehicle: saline): 100 % of control
- T/C (dose: 25.0 mg/kg/injection, schedule: Q01DX005 (ip), vehicle: saline): 97 % of control
- T/C (dose: 50.0 mg/kg/injection, schedule: Q01DX005 (ip), vehicle: saline): 100 % of control and 102 % of control

SMILES: CCn1c(Cl)c(/C=N/Nc2ccccc2[N+](=O)[O-])c2cc(/C=N/Nc3ccccc3[N+](=O)[O-])ccc21
- T/C (dose: 100.0 mg/kg/injection, schedule: Q01DX001 (ip), vehicle: Klucel (hydroxypropylcellulose) (HPC)): 87 % of control
- T/C (dose: 200.0 mg/kg/injection, schedule: Q01DX001 (ip), vehicle: Klucel (hydroxypropylcellulose) (HPC)): 93 % of control
- T/C (dose: 400.0 mg/kg/injection, schedule: Q01DX001 (ip), vehicle: Klucel (hydroxypropylcellulose) (HPC)): 91 % of control

SMILES: Cc1nn(C(N)=S)c(C)c1N=Nc1ccc(Cl)cc1Cl
- T/C (dose: 50.0 mg/kg/injection, schedule: Q04DX002 (ip), vehicle: saline with Tween-80): 101 % of control and 105 % of control
- T/C (dose: 600.0 mg/kg/injection, schedule: Q04DX002 (ip), vehicle: saline with Tween-80): 90 % of control

SMILES: COc1cc2c(cc1OC)OC(C)(C)C=C2
- T/C (dose: 6.87 mg/kg/injection, schedule: Q01DX009 (ip), vehicle: saline with Tween-80): 106 % of control
- T/C (dose: 13.75 mg/kg/injection, schedule: Q01DX009 (ip), vehicle: saline with Tween-80): 98 % of control
- T/C (dose: 27.5 mg/kg/injection, schedule: Q01DX009 (ip), vehicle: saline with Tween-80): 108 % of control
- T/C (dose: 55.0 mg/kg/injection, schedule: Q01DX009 (ip), vehicle: saline with Tween-80): 102 % of control

SMILES: S=C1CC2CCCC(C2)N1 (stereo unspecified)
- T/C (dose: 1.87 mg/kg/injection, schedule: Q01DX005 (ip), vehicle: Klucel (hydroxypropylcellulose) (HPC)): 95 % of control
- T/C (dose: 3.75 mg/kg/injection, schedule: Q01DX005 (ip), vehicle: Klucel (hydroxypropylcellulose) (HPC)): 100 % of control
- T/C (dose: 7.5 mg/kg/injection, schedule: Q01DX005 (ip), vehicle: Klucel (hydroxypropylcellulose) (HPC)): 101 % of control and 94 % of control

SMILES: O=c1cc(-c2ccccc2)c2ccc(O)c(CN(CCO)CCO)c2o1
- T/C (dose: 100.0 mg/kg/injection, schedule: Q04DX002 (ip), vehicle: saline with Tween-80): 89 % of control
- T/C (dose: 200.0 mg/kg/injection, schedule: Q04DX002 (ip), vehicle: saline with Tween-80): 89 % of control

SMILES: CNC(=O)OCC[N+](C)(C)C
- T/C (dose: 3.12 mg/kg/injection, schedule: Q01DX009 (ip), vehicle: saline): 101 % of control
- T/C (dose: 6.25 mg/kg/injection, schedule: Q01DX009 (ip), vehicle: saline): 101 % of control

SMILES: [C-]#Cc1ccccc1.[C-]#Cc1ccccc1.[Cu+2]
- T/C [1]: 91 % of control
- T/C [2]: 86 % of control
- T/C [3]: 87 % of control

SMILES: COc1cc([N+](=O)[O-])c(S(=O)(=O)O)cc1N
- T/C [6]: 99 % of control
- T/C [7]: 94 % of control
- T/C [8]: 93 % of control

SMILES: O=C1CCC(C(=O)N(C(=O)NC2CCCCC2)C2CCCCC2)Cc2ccccc21 (stereo unspecified)
- T/C (dose: 60.0 mg/kg/injection, schedule: Q01DX005 (ip), vehicle: Klucel (hydroxypropylcellulose) (HPC)): 98 % of control
- T/C (dose: 120.0 mg/kg/injection, schedule: Q01DX005 (ip), vehicle: Klucel (hydroxypropylcellulose) (HPC)): 92 % of control
- T/C (dose: 240.0 mg/kg/injection, schedule: Q01DX005 (ip), vehicle: Klucel (hydroxypropylcellulose) (HPC)): 90 % of control

SMILES: NC(CS(=O)(=O)NO)C(=O)O (stereo unspecified)
- T/C (dose: 60.0 mg/kg/injection, schedule: Q01DX009 (ip), vehicle: saline with Tween-80): 97 % of control
- T/C (dose: 120.0 mg/kg/injection, schedule: Q01DX009 (ip), vehicle: saline with Tween-80): 113 % of control
- T/C (dose: 240.0 mg/kg/injection, schedule: Q01DX009 (ip), vehicle: saline with Tween-80): 119 % of control
